Measurements as given in patent publication US11136312B2, “3,4,5-trisubstituted-1,2,4-triazoles and 3,4,5-trisubstituted-3-thio-1,2,4-triazoles and uses thereof” (Board of Trustees of Southern Illinois University, priority 2017, dated 2021).

Tests used:
[1] = target: human somatostatin receptor SSTR1 (Homo sapiens (Human), UniProt P30872); assay: Competitive radioligand binding, 125I-Tyr-SRIF 14, membrane preparations; settings: competitive binding vs 125I-Tyr-SRIF 14, human SSTR1 membranes; read-out: SST1
Method: (§1) Respective membrane receptor preparations were prepared in assay buffer (25 mM HEPES, 10 mM MgCl2, 1 mM CaCl2, 0.5% BSA, pH=7.4) at a 1:150 dilution. […] Binding assays were performed in triplicate for each concentration of ligand in a total volume of 200 μL radioligand (25 μL ligand, 25 μL radioligand, 150 μL receptors) and incubated at room temperature for 90 minutes using a shaking table. Binding was terminated by filtration through GF/B glass fiber filters that were presoaked in 0.5% polyethyleneimine for a minimum of 4 hours. Filters were washed 9× with 1000 μL ice cold wash buffer (50 mM Tris-HCl, pH=7.4, 0.2% BSA). Filters were scored, transferred into plastic test tubes and counted in a gamma counter (Wizard2, Perkin-Elmer). Determination of the Ki for each compound was performed using non-linear regression with GraphPad PRISM-5 software (GraphPad Software, Inc., La Jolla, Calif.).

[2] = target: human somatostatin receptor SSTR2A (Homo sapiens (Human), UniProt P30874); assay: as above; settings: competitive binding vs 125I-Tyr-SRIF 14, human SSTR2A membranes; read-out: SST2
Method: as §1

[3] = target: human somatostatin receptor SSTR5 (Homo sapiens (Human), UniProt P35346); assay: as above; settings: competitive binding vs 125I-Tyr-SRIF 14, human SSTR5 membranes; read-out: SST5
Method: as §1

[4] = target: human somatostatin receptor SSTR3 (Homo sapiens (Human), UniProt P32745); assay: as above; settings: competitive binding vs 125I-Tyr-SRIF 14, human SSTR3 membranes; read-out: SST3
Method: Competitive radioligand binding experiments were performed using MEMBRANE TARGET Systems (Perkin-Elmer, Boston, Mass.) for human somatostatin receptors: SSTR1 (ES-520-M400UA), SSTR2A (ES-521-M400UA), SSTR3 (ES523-M400UA), SSTR4 (ES-524-M400UA) and SSTR5 (ES-522-M400UA) receptors. (See Table 1). Respective membrane receptor preparations were prepared in assay buffer (25 mM HEPES, 10 mM MgCl2, 1 mM CaCl2, 0.5% BSA, pH=7.4) at a 1:150 dilution. Binding assays were performed using 1251-Tyr-SRIF 14 (Perkin-Elmer, NEX 3890) dissolved in 1 mM HCl. Binding assays were performed in triplicate for each concentration of ligand in a total volume of 200 μL radioligand (25 μL ligand, 25 μL radioligand, 150 μL receptors) and incubated at room temperature for 90 minutes using a shaking table. Binding was terminated by filtration through GF/B glass fiber filters that were presoaked in 0.5% polyethyleneimine for a minimum of 4 hours. Filters were washed 9× with 1000 μL ice cold wash buffer (50 mM Tris-HCl, pH=7.4, 0.2% BSA). Filters were scored, transferred into plastic test tubes and counted in a gamma counter (Wizard2, Perkin-Elmer). Determination of the Ki for each compound was performed using non-linear regression with GraphPad PRISM-5 software (GraphPad Software, Inc., La Jolla, Calif.).

[5] = target: CHO-K1 cells expressing human somatostatin SSTR4 (Homo sapiens (Human), UniProt P31391); assay: Inhibition of forskolin stimulated cAMP, TR-FRET LANCE assay; assay type: cell-based; settings: against 5 μM forskolin
Method: Measurement of forskolin stimulated inhibition of cAMP was performed via time-resolved fluorescence resonance energy transfer (TR-FRET) LANCE assay (AD0262, PerkinElmer Life Science, Inc., Boston Mass.). […] LANCE cAMP assay was performed per manufacture instruction with assessment of respective compound, somatostatin-28 (Sigma-Aldrich Co., St. Louis, Mo.) as control agonist, against 5 μM forskolin, performed in triplicate across concentration curve. […] Data was calculated via GraphPad PRISM-5 software.

human somatostatin receptor SSTR2A, sequence (P30874 whole entry): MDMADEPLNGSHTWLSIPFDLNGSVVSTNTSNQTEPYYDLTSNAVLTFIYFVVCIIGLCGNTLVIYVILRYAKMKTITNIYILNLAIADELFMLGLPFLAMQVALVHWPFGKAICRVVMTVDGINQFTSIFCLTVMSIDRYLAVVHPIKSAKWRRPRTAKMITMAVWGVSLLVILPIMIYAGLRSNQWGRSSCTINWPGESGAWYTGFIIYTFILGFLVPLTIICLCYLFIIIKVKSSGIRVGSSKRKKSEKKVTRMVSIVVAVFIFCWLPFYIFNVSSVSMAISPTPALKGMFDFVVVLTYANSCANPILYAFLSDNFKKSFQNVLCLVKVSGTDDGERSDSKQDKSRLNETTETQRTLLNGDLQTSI
CHO-K1 cells expressing human somatostatin SSTR4, sequence (P31391 whole entry): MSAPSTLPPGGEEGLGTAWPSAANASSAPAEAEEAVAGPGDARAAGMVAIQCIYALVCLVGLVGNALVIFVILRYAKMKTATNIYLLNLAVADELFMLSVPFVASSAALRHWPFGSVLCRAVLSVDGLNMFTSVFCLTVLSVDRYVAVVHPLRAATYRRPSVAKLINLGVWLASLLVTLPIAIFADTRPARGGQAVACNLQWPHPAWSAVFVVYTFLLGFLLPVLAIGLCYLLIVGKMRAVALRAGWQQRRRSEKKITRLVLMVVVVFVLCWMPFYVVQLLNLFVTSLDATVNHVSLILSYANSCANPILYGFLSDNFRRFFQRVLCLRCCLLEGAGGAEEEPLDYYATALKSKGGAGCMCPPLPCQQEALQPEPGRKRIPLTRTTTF

Row | Ki [1] | Ki [2] | Ki [3] | Ki [4] | EC50 [5] | SMILES
1 | 3.17 µM | > 10 µM | > 10 µM | 6.99 µM | – | Cn1cc(CCc2nnc(Cc3ccc(Cl)c(Cl)c3)n2CCCc2c[nH]cn2)c2ccccc21 [SM-I-60, 3-(2-(4-(3-(1H-Imidazol-4-yl)propyl)-5-(3,4-dichlorobenzyl)-4H-1,2,4-triazol-3-yl)ethyl)-1-methyl-1H-indole]
2 | 6.93 µM | > 10 µM | > 10 µM | > 10 µM | – | Clc1cccc(Cc2nnc(CCc3c[nH]c4ccccc34)n2CCCc2c[nH]cn2)c1 [BN-VI-56, 3-(2-(4-(3-(1H-Imidazol-4-yl)propyl)-5-(3-chlorobenzyl)-4H-1,2,4-triazol-3-yl)ethyl)-1H-indole]
3 | 2.58 µM | > 10 µM | > 10 µM | > 10 µM | – | COc1ccc(Cc2nnc(Cc3c[nH]c4ccccc34)n2CCCc2c[nH]cn2)cc1 [SK-I-23, 3-((4-(3-(1H-imidazol-4-yl)propyl)-5-(4-methoxybenzyl)-4H-1,2,4-triazol-3-yl)methyl)-1H-indole]
4 | 1.03 µM | 5.43 µM | > 10 µM | > 10 µM | – | COc1ccc2[nH]cc(Cc3nnc(Cc4ccc(F)cc4)n3CCCc3c[nH]cn3)c2c1 [SK-I-55, 3-((4-(3-(1H-imidazol-4-yl)propyl)-5-(4-fluorobenzyl)-4H-1,2,4-triazol-3-yl)methyl)-5-methoxy-1H-indole]
5 | > 10 µM | > 10 µM | > 10 µM | > 10 µM | – | Clc1ccccc1Cc1nnc(CCc2c[nH]c3ccccc23)n1CCCc1c[nH]cn1 [MM-I-17, 3-(2-(4-(3-(1H-Imidazol-4-yl)propyl)-5-(2-chlorobenzyl)-4H-1,2,4-triazol-3-yl)ethyl)-1H-indole]
6 | 0.468 µM | 3.97 µM | > 10 µM | > 10 µM | – | Fc1ccc(Cc2nnc(Cc3c[nH]c4cc(F)ccc34)n2CCCc2c[nH]cn2)cc1 [SK-I-91, 3-((4-(3-(1H-imidazol-4-yl)propyl)-5-(4-fluorobenzyl)-4H-1,2,4-triazol-3-yl)methyl)-6-fluoro-1H-indole]
7 | 5.31 µM | > 10 µM | > 10 µM | > 10 µM | – | FC(F)(F)c1cccc(Cc2nnc(CCc3c[nH]c4ccccc34)n2CCCc2c[nH]cn2)c1 [BN-VI-97, 3-(2-(4-(3-(1H-Imidazol-4-yl)propyl)-5-(3-(trifluoromethyl)benzyl)-4H-1,2,4-triazol-3-yl)ethyl)-1H-indole]
8 | > 10 µM | > 10 µM | > 10 µM | > 10 µM | – | Fc1cccc(Cc2nnc(CCc3c[nH]c4ccccc34)n2CCCc2c[nH]cn2)c1 [SM-I-38, 3-(2-(4-(3-(1H-Imidazol-4-yl)propyl)-5-(3-fluorobenzyl)-4H-1,2,4-triazol-3-yl)ethyl)-1H-indole]
9 | 4.34 µM | > 10 µM | > 10 µM | > 10 µM | – | CC(C)(C)Cc1nnc(Cc2c[nH]c3cc(F)ccc23)n1CCCc1c[nH]cn1 [SK-I-119, 3-((4-(3-(1H-imidazol-4-yl)propyl)-5-neopentyl-4H-1,2,4-triazol-3-yl)methyl)-6-fluoro-1H-indole]
10 | 1.01 µM | > 10 µM | > 10 µM | > 10 µM | – | COc1ccc(Cc2nnc(Cc3c[nH]c4ccc(OC)cc34)n2CCCc2c[nH]cn2)cc1 [SK-I-56, 3-((4-(3-(1H-imidazol-4-yl)propyl)-5-(4-methoxybenzyl)-4H-1,2,4-triazol-3-yl)methyl)-5-methoxy-1H-indole]
11 | 1.72 µM | 7.1 µM | > 10 µM | > 10 µM | – | COc1ccc2[nH]cc(Cc3nnc(Cc4ccccc4)n3CCCc3c[nH]cn3)c2c1 [SK-I-53, 3-((4-(3-(1H-imidazol-4-yl)propyl)-5-benzyl-4H-1,2,4-triazol-3-yl)methyl)-5-methoxy-1H-indole]
12 | > 10 µM | > 10 µM | > 10 µM | > 10 µM | – | Fc1cc(F)cc(Cc2nnc(CCc3c[nH]c4ccccc34)n2CCCc2c[nH]cn2)c1 [SM-I-55, 3-(2-(4-(3-(1H-Imidazol-4-yl)propyl)-5-(3,5-difluorobenzyl)-4H-1,2,4-triazol-3-yl)ethyl)-1H-indole]
13 | > 10 µM | > 10 µM | > 10 µM | > 10 µM | – | COc1ccccc1Cc1nnc(CCc2c[nH]c3ccccc23)n1CCCc1c[nH]cn1 [MM-I-21, 3-(2-(4-(3-(1H-Imidazol-4-yl)propyl)-5-(2-methoxybenzyl)-4H-1,2,4-triazol-3-yl)ethyl)-1H-indole]
14 | – | > 10 µM | – | 0.0017 µM | 0.00203 µM | c1ccc(Cc2nnc(Cc3c[nH]c4ccccc34)n2CCCc2c[nH]cn2)cc1 [SK-I-25, 3-((4-(3-(1H-imidazol-4-yl)propyl)-5-benzyl-4H-1,2,4-triazol-3-yl)methyl)-1H-indole]
15 | 0.588 µM | 2.33 µM | > 10 µM | > 10 µM | – | FC(F)(F)c1cccc(Cc2nnc(Cc3c[nH]c4ccccc34)n2CCCc2c[nH]cn2)c1 [MM-I-66, 3-((4-(3-(1H-imidazol-4-yl)propyl)-5-(3-(trifluoromethyl)benzyl)-4H-1,2,4-triazol-3-yl)methyl)-1H-indole]
